The nature of series [1]: LD50 determination, intraperitoneal administration. The note with it: mouse, in vivo, ip.
Series [2] is described as follows: LD50 determination, oral administration. The note with it: mouse, in vivo.
The subject of series [3] is rat. Nature of the series: LD50 determination in rats. The class given is in vivo.
Series [4] addresses T1, Cyclooxygenase 2 derived from sheep placentae (Ovis aries, UniProt P79208).
T1 sequence (P79208 17-603): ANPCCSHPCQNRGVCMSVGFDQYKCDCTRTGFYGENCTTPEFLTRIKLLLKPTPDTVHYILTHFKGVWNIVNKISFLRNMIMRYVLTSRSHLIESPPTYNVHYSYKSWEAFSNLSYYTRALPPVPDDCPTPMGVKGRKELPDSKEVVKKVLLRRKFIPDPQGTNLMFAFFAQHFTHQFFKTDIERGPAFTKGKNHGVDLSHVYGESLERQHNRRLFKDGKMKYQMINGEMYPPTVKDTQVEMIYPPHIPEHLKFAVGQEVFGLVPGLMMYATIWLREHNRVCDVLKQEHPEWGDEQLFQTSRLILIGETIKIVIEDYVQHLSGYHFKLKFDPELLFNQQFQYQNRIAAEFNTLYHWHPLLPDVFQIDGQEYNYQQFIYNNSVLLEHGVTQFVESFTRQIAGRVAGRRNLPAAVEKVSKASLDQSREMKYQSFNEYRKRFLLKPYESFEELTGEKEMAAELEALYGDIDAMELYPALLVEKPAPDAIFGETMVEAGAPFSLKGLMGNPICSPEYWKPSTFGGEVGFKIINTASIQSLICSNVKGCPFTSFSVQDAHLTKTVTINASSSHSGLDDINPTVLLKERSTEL
As to the kind of experiment: In vitro inhibition of cyclooxygenase 2 activity (synthesis of prostaglandin H2 from 14C-arachidonic acid, TLC autoradiography). The settings on record: sheep placenta COX-2, 35° C., 30 min.
Protocol: Arachidonic acid was used as the substrate in the present example. Ten μl of arachidonic acid was dissolved in methanol (10 mg/ml) and mixed with 5 μCi of ^14C-labeled arachidonic acid; and to obtain a dried substrate, the solvent was evaporated by blowing with nitrogen gas at room temperature. Subsequently, the substrate was dissolved in 50 μl of dimethylsulfoxide (DMSO), and 10 ml of 5 mM Tris-HCl buffer (pH 8.0) containing 2 mM phenol was added to the substrate solution, followed by sonication to completely dissolve the sample. Separately, test compounds having final concentrations of 0.1-10 μM were prepared. […] Five μl of each compound solution was added to 5 μl of the above substrate solution, followed by mixing. The samples were then preincubated at 35° C. for about 10 min. Cyclooxygenase 2 derived from sheep placentae (Cayman Chem.) had been separately diluted 10-fold with the above buffer, and 20 μl of the enzyme solution was added to each of the above samples. The enzyme reaction was carried out at 35° C. for 30 min, and stopped by adding 0.5 ml of ice-cold ethanol to each sample. Then, to 0.9 ml of each sample, 2.0 ml of 2% acetic acid solution was added. Arachidonic acid and its metabolite prostaglandin H2 were then extracted with 3.0 ml of ethyl acetate. From each extracted sample, a 2.0-ml portion was transferred to a new test tube. The solvent was distilled off from the transferred samples under reduced pressure, and the samples were dried in vacuo. Then each dried sample was dissolved in 100 μl of methanol, out of which 5 μl was subjected to analysis by high resolution thin layer chromatography. Arachidonic acid and its metabolite prostaglandin H2 were separated by chromatography with a developing solution of chloroform, ethyl acetate, methanol, acetic acid and water in proportions of 70:30:8:1:0.5 (v/v). The chromatography plate, together with a ^14C-standard substance, was exposed to an imaging plate (Fuji Film), and was analyzed with Fuji Film Bio-Image analyzer BAS-2000 to obtain an autoradiogram. By scanning of spots corresponding to the standard radioactive samples, a standard dose-response curve was plotted. Then, by use of the standard curve, each scanned value of arachidonic acid spots and prostaglandin H2 spots was converted to a amount of radiation. Indomethacin was purchased from Sigma, and PZ25 was a gift from Rhone-Poulenc Rorer.

Usually LD50 stands for the dose at which mortality reaches 50%. Higher therefore signals lower toxicity. Take `O=c1c2ccccc2[se]n1-c1ccccc1` [Compound A, 2-phenyl-1,2-benzisoselenazol-3(2H)-one]: the LD50 in series [1] is 740 mg/kg; in series [2] it was no less than 6810 mg/kg; in series [3], “large doses were required”. Further, the “Generated Amount of Prostaglandin H2 (%)” value in series [4] (dose of compound 1 μM) turned out to be 91.8 ± 14.3%; in series [4] (dose of compound 3 μM), 78.6 ± 5.28%; in series [4] (dose of compound 10 μM), 46.88 ± 6.49 %; in series [4] (dose of compound 30 μM), 20.10 ± 1.95 %.

Take `O=c1c2ccccc2sn1-c1ccccc1` [PZ25, 2-phenyl-1,2-benzisothiazol-3(2H)-one, reference compound]: the “Generated Amount of Prostaglandin H2 (%)” value is 103.25 ± 9.29% in series [4] (dose of compound 3 μM), 103.53 ± 11.2% in series [4] (dose of compound 10 μM) and 93.9 ± 9.06% in series [4] (dose of compound 30 μM).

These data come from patent US6495517B2, “Cyclooxygenase inhibitor” (A. Natterman & Cie. GmbH, priority 1998, dated 2002).
